Nine molecules from PubChem BioAssay (NCI) can be followed below.

Among the test systems are A498 renal; HOP-62 NSCLC; K-562 leukemia; M14 melanoma; MCF7 breast; MDA-MB-231 breast; SK-OV-3 ovarian; OVCAR-8 ovarian; RPMI-8226 leukemia; SF-268 CNS.
What all share (assay): DTP human tumour cell line panel, 48 h

The structures appear in SMILES notation.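 Test compounds were applied to cells in 96-well plates for 48 hours at 5 doses. GI50 is the concentration that inhibits growth by half. The concentration for full growth arrest is given as TGI.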

For `Nc1ccn(C2OC(CO[P+](=O)OC3C(CO[P+](=O)OC4C(CO[P+](=O)OC5C(CO[P+](=O)OC6C(CO[P+](=O)OC7C(CO[P+](=O)OC8C(CO[P+](=O)OC9C(CO[P+](=O)OC%10C(CO[P+](=O)OC%11C(CO)OC(n%12ccc(N)nc%12=O)C%11(F)F)OC(n%11ccc(N)nc%11=O)C%10(F)F)OC(n%10ccc(N)nc%10=O)C9(F)F)OC(n9ccc(N)nc9=O)C8(F)F)OC(n8ccc(N)nc8=O)C7(F)F)OC(n7ccc(N)nc7=O)C6(F)F)OC(n6ccc(N)nc6=O)C5(F)F)OC(n5ccc(N)nc5=O)C4(F)F)OC(n4ccc(N)nc4=O)C3(F)F)C(O)C2(F)F)c(=O)n1` (centres undefined), the TGI with A498 renal is more than 100 µM; in the experiment on K-562 leukemia, more than 100 µM; with M14 melanoma, 0.27 µM; in the experiment on MCF7 breast, more than 100 µM; in the experiment with MDA-MB-231 breast, more than 100 µM; in the experiment with SK-OV-3 ovarian, more than 100 µM. The GI50 in the experiment with HOP-62 NSCLC was 0.0175 µM; with K-562 leukemia it was 2.71 µM; in the experiment with M14 melanoma it was 0.0397 µM; in the experiment on MDA-MB-231 breast, 0.522 µM; in the experiment with SK-OV-3 ovarian, 0.255 µM.
For the molecule `COC(=O)C1=C2C3=C(C(=O)c4ccccc4C3=O)N(Cc3ccccc3)C2(OC(C)=O)C=CC1=O` (centres undefined), the GI50 in the experiment with HOP-62 NSCLC was 2.94 µM; with K-562 leukemia it was 4.69 µM; in the experiment on M14 melanoma, 15.2 µM; in the experiment with MCF7 breast, 3.73 µM; in the experiment on OVCAR-8 ovarian, 22.4 µM; in the experiment on RPMI-8226 leukemia, 1.09 µM. Moreover, the GI50 in the experiment with SF-268 CNS was 2.86 µM; in the experiment on SK-OV-3 ovarian, 27.6 µM. In addition, the TGI in the experiment with HOP-62 NSCLC was 13.7 µM; with K-562 leukemia it was more than 100 µM; in the experiment with M14 melanoma it was 34 µM; in the experiment with MCF7 breast it was more than 100 µM; in the experiment with MDA-MB-231 breast, 8.05 µM; in the experiment on OVCAR-8 ovarian, 83 µM. Besides, the total growth inhibition concentration (TGI) with RPMI-8226 leukemia is 8.83 µM; in the experiment with SF-268 CNS it was 23.6 µM; with SK-OV-3 ovarian, more than 100 µM.
Consider `Cc1cc(N2CCOCC2)nc(N(CCNc2ccnc3cc(Cl)ccc23)Cc2ccco2)n1`, for which the GI50 in the experiment with A498 renal was 2.47 µM; in the experiment on HOP-62 NSCLC, 3.62 µM; in the experiment with K-562 leukemia it was 2.91 µM; in the experiment with M14 melanoma, 2.34 µM; in the experiment on MCF7 breast, 3.15 µM; in the experiment on MDA-MB-231 breast, 3.16 µM. The GI50 is 3.84 µM in the experiment with OVCAR-8 ovarian, 11.1 µM with SF-268 CNS and 7.01 µM in the experiment with SK-OV-3 ovarian. Moreover, the concentration for total growth inhibition (TGI) in the experiment on A498 renal is 12.6 µM; in the experiment with HOP-62 NSCLC it was 31.3 µM; in the experiment with K-562 leukemia it was more than 100 µM; in the experiment on M14 melanoma, 6.43 µM; in the experiment on MCF7 breast, 18.9 µM; in the experiment with MDA-MB-231 breast it was 13.4 µM. Moreover, the values for the total growth inhibition concentration (TGI) in the experiment with OVCAR-8 ovarian, in the experiment with SF-268 CNS and in the experiment on SK-OV-3 ovarian were more than 100 µM, 46 µM and 22 µM, respectively.
For the molecule `C=CC[Se]C(=O)c1ccccc1OC(C)=O`, the GI50 was 0.885 µM in the experiment with A498 renal; 3.1 µM in the experiment with K-562 leukemia; 1.58 µM with M14 melanoma; 1.83 µM in the experiment on MCF7 breast; 1.52 µM in the experiment on OVCAR-8 ovarian; 2.22 µM with RPMI-8226 leukemia. The GI50 with SF-268 CNS is 2.49 µM; in the experiment on SK-OV-3 ovarian it was 1.2 µM. The concentration for total growth inhibition (TGI) with A498 renal was 5.62 µM; with K-562 leukemia, more than 100 µM; in the experiment on M14 melanoma, 3.06 µM; in the experiment with MCF7 breast, 4.31 µM; in the experiment on OVCAR-8 ovarian, 3.56 µM; in the experiment with RPMI-8226 leukemia, 5.71 µM. Besides, the total growth inhibition concentration (TGI) in the experiment with SF-268 CNS was 6.5 µM; in the experiment on SK-OV-3 ovarian it was 2.54 µM.
As for `O=C(O)c1ccc([N+](=O)[O-])c(P(=O)(O)O)c1`, the TGI with A498 renal, in the experiment with HOP-62 NSCLC, in the experiment on K-562 leukemia, in the experiment on M14 melanoma, with MCF7 breast and with MDA-MB-231 breast was more than 100 µM each time. Also, the TGI with OVCAR-8 ovarian, with RPMI-8226 leukemia and in the experiment on SK-OV-3 ovarian was more than 100 µM throughout.
In the case of `C[C@H]1O[C@@H](O[C@H]2[C@@H](O)C[C@H](O[C@H]3[C@@H](O)C[C@H](O[C@H]4CC[C@]5(C)C6C[C@@H](O)[C@]7(C)[C@@H](C8=CC(=O)OC8)CC[C@]7(O)C6CC[C@@H]5C4)O[C@@H]3C)O[C@@H]2C)C[C@H](O)[C@@H]1O` (some centres undefined), the 50% growth inhibitory concentration (GI50) in the experiment on HOP-62 NSCLC is 0.038 µM; in the experiment on K-562 leukemia, 0.117 µM; in the experiment on M14 melanoma it was 0.107 µM; in the experiment with MCF7 breast it was 0.0521 µM; in the experiment on MDA-MB-231 breast, 0.265 µM; in the experiment with OVCAR-8 ovarian it was 0.0788 µM. For the same molecule, the GI50 in the experiment on RPMI-8226 leukemia was 0.117 µM; in the experiment on SF-268 CNS it was 0.0253 µM; in the experiment on SK-OV-3 ovarian, 0.0821 µM. Further, the TGI stood at 0.102 µM in the experiment with HOP-62 NSCLC; 0.413 µM in the experiment on K-562 leukemia; 0.241 µM in the experiment on M14 melanoma; 1.69 µM in the experiment on MCF7 breast; 1.32 µM with MDA-MB-231 breast; 0.198 µM in the experiment on OVCAR-8 ovarian. For the same molecule, the total growth inhibition concentration (TGI) is 0.377 µM with RPMI-8226 leukemia, 0.083 µM in the experiment on SF-268 CNS and 0.164 µM in the experiment on SK-OV-3 ovarian.
`N#CC(NC12CC3CC(CC(C3)C1)C2)c1ccccc1` (centres undefined): the TGI with HOP-62 NSCLC, with K-562 leukemia, in the experiment with M14 melanoma, in the experiment with MCF7 breast, in the experiment with MDA-MB-231 breast and in the experiment with OVCAR-8 ovarian was more than 100 µM in each case. In addition, the TGI in the experiment on RPMI-8226 leukemia, with SF-268 CNS and with SK-OV-3 ovarian was more than 100 µM each time.
With `CCCCN(CCCC)c1cc(C(=O)CCCCCN)c2ccccc2n1`, the GI50 was 2.85 µM with A498 renal; 1.76 µM with HOP-62 NSCLC; 2.47 µM with K-562 leukemia; 1.83 µM in the experiment on M14 melanoma; 1.62 µM in the experiment on MDA-MB-231 breast; 2.03 µM in the experiment with OVCAR-8 ovarian. Also, the GI50 was 2.95 µM in the experiment on RPMI-8226 leukemia, 3.38 µM with SF-268 CNS and 1.76 µM with SK-OV-3 ovarian. The total growth inhibition concentration (TGI) in the experiment on A498 renal turned out to be 19.2 µM; in the experiment on HOP-62 NSCLC, 3.53 µM; in the experiment on K-562 leukemia, 5 µM; in the experiment on M14 melanoma, 3.29 µM; with MDA-MB-231 breast, 3.09 µM; in the experiment on OVCAR-8 ovarian it was 4.61 µM. Also, the concentration for total growth inhibition (TGI) stood at 6.53 µM with RPMI-8226 leukemia, 12.7 µM in the experiment with SF-268 CNS and 3.16 µM with SK-OV-3 ovarian.
As for `CCCCC(SC(=S)N(CC)CC)C(=O)Nc1nc(CC(=O)OCC)cs1` (centres undefined), the GI50 with A498 renal was 54.3 µM; in the experiment on HOP-62 NSCLC, more than 100 µM; with K-562 leukemia, 25 µM; with M14 melanoma, 33.7 µM; in the experiment on MDA-MB-231 breast, 47.8 µM; with OVCAR-8 ovarian, 41.4 µM. Moreover, the GI50 in the experiment with RPMI-8226 leukemia is 22 µM; with SF-268 CNS, 54.3 µM; in the experiment with SK-OV-3 ovarian, 75.6 µM. Besides, the total growth inhibition concentration (TGI) in the experiment with A498 renal, with HOP-62 NSCLC, in the experiment on K-562 leukemia, in the experiment on M14 melanoma, in the experiment on MDA-MB-231 breast and in the experiment on OVCAR-8 ovarian was more than 100 µM each time. For the same molecule, the TGI is 85.2 µM with RPMI-8226 leukemia, more than 100 µM in the experiment on SF-268 CNS and more than 100 µM in the experiment on SK-OV-3 ovarian.

What is called TGI is the concentration giving total growth inhibition. Broadly, the GI50 is the concentration giving 50% growth inhibition.
